IC50 and Kd data for five compounds are collected here from ChEMBL document CHEMBL6078623, “Structural insights into small-molecule KRAS inhibitors for targeting KRAS mutant cancers” (Eur J Med Chem, 2024).

One experiment has as its system DLD-1. The experiment in a line: Antiproliferative activity against human DLD-1 cells assessed as inhibition of cell growth incubated for 72 hrs by MTS assay. It is filed as functional, cell-based. The following applies: DLD-1, 72 h. A general note: Formazan colour is commonly taken as a measure of viable cells.
For another experiment, the system named is HT-1080. The experiment in a line: Cytotoxicity against human HT-1080 cells assessed as reduction in cell viability incubated for 48 hrs by MTT assay. The class given is functional, cell-based. Particulars: HT-1080, 48 h.
Experiment [1] has as its target GTPase KRas (Homo sapiens, UniProt P01116, G12D). The experiment in a line: Binding affinity to KRAS G12D mutant (unknown origin) assessed as dissociation constant by SPR analysis. Background: Surface plasmon resonance follows binding to a sensor surface in real time, without labels.
In experiment [2] the target is GTPase KRas (Homo sapiens, UniProt P01116, G12C). The experiment in a line: Inhibition of KRAS G12C mutant in human NCI-H358 cells incubated for 24 hrs by Western blot analysis. It is filed as cell-based. Background: A western blot detects proteins with antibodies after separation by electrophoresis.
The next experiment concerns NCI-H358. The experiment in a line: Antiproliferative activity against human NCI-H358 cells assessed as reduction in cell viability. The class given is functional, cell-based.
In another experiment the test system is MIA PaCa-2. The experiment in a line: Antiproliferative activity against human MIA PaCa-2 cells assessed as reduction in cell viability. The class given is functional, cell-based.

The structures appear in SMILES notation.

Sequence of GTPase KRas (Homo sapiens, UniProt P01116, G12C) (P01116 whole entry G12C): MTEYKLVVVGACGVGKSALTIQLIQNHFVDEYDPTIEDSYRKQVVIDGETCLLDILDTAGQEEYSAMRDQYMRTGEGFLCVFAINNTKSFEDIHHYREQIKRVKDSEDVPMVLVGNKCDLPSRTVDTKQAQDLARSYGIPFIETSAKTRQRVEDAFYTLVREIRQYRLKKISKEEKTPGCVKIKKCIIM
Sequence of GTPase KRas (Homo sapiens, UniProt P01116, G12D) (P01116 whole entry G12D): as the sequence (P01116 whole entry G12C) above, with C12D counted along it

As for `COc1nc(-c2cccc3c2OCCO3)ccc1Nc1ccc(CN(C)C)cc1`, the concentration for half-maximal inhibition (IC50) – broadly, the midpoint of a concentration-inhibition curve – worked out at 8 µM in the experiment on DLD-1 and 10 µM in the experiment with HT-1080. Moreover, the Kd – broadly, a measure of binding affinity in units of concentration – at GTPase KRas [1] was 51 nM. `NC1(C(=O)NCCCn2cc(-c3ccc(OC(F)(F)F)cc3)c3cc(CN4CCN(Cc5c(Cl)cccc5Cl)CC4)ccc32)CCNCC1`: the IC50 against GTPase KRas [2] was 1000 nM. Take `C=CC(=O)N1CCN2C(=O)Cc3cc(F)c(-c4ccc(F)c5sc(N)c(C#N)c45)c(Cl)c3OCC2C1` (stereo not drawn): the half-maximal inhibitory concentration (IC50) on GTPase KRas [2] came to 3.35 nM. With `C=CC(=O)N1CC2(CC(n3nc(-c4ccc5c(cnn5C)c4)c(-c4c(Cl)c(C)cc5[nH]ncc45)c3C)C2)C1` [OPNURASIB], the IC50 in the experiment with NCI-H358 was 18 nM; at GTPase KRas [2], 10 nM. Take `C=CC(=O)N1CCN(c2nc(=O)n(-c3c(C)ccnc3C(C)C)c3nc(-c4c(O)cccc4F)c(F)cc23)[C@@H](C)C1` [SOTORASIB]: in the experiment on MIA PaCa-2, the half-maximal inhibitory concentration (IC50) came to 100 nM.
